Experiments:
[1] = system: genotype A, "Long" strain RSV; experiment: RSV-A assay (CPE, ATPlite readout in Hep-2 cells); type: cell-based; conditions: human respiratory syncytial virus, HEp-2, Hep-2 cells, genotype A "Long" strain RSV, MOI 0.1; read-out: Human RSV-A (“Long” strain) EC50
How it was run: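 Protection from RSV-induced cytopathic effect, measured as ATPlite luminescence after 5 days, gave EC50 values. Assay used genotype A Long strain at MOI 0.1 on Hep-2 cells seeded at 8,000/well in DMEM growth media with 10% FBS; compounds tested as 2-fold dilutions in duplicate.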

[2] = system: recombinant HMPV CAN97-83 (MPV-GFP1); experiment: HMPV antiviral assay (MPV-GFP1 eGFP fluorescence in Vero E6 cells); type: cell-based; conditions: human metapneumovirus, Vero C1008, 120 h, read-out: HMPV EC50
Protocol: HMPV antiviral activity was evaluated using a recombinant version of HMPV CAN97-83 engineered to contain the coding sequence for enhanced green fluorescence protein (eGFP) in the 3′ end of the virus genome (MPV-GFP1, ViraTree). Vero E6 cells ([…]) were seeded at a density of 12,000 cells/100 μL/well into 96-well cell plates one day prior to the assay. On the day of screening, the cell culture medium was aspirated from the wells and cells were washed twice with serum-free Eagle's Modified Essential Medium (EMEM, ATCC #) containing 1% penicillin-streptomycin (Invitrogen) (SF-EMEM). Cell washes were performed by dispensing 100 μL SF-EMEM per well and immediately aspirating the wash medium from the well. Following the second wash step, serum-free OptiMEM (Invitrogen, Cat No.) (SF-OptiMEM) containing 0.5 μg/mL TPCK-Trypsin (VENDOR) and 1% penicillin-streptomycin was added to the cells at 50 μL/well. Compounds were added into the 96-well plates using a JANUS automated liquid handling system (VENDOR). Compounds were initially diluted 1:50 into an intermediate 96-well plate containing SF-OptiMEM prior to transfer to the assay plate (25 μL/well). Each of the test compounds were tested in duplicate wells at final concentrations starting from 8 μM or 2 μM using ½ stepwise dilutions for a total of 8 points. Virus infection was performed by preparing a working stock of MPV-GFP1 at a multiplicity of infection (MOI) equal to 0.05/25 μL and aliquoting 25 μL of virus inoculum to the compound and positive control wells. SF-OptiMEM was added (25 μL/well) to the appropriate wells to serve as a virus-free negative control for the assay. The final DMSO concentration of all wells is 0.5%. Plates were incubated at 32° C., 5% CO2 for 5 days.
After 5 days incubation, eGFP fluorescence intensity was measured at […] using a Spectramax i3X plate reader (VENDOR). Percent viral inhibition was calculated using the following equation: y=[[…]−(XQ/XP)]×100 Where XQ is the fluorescence intensity measured in a well containing recombinant MPV-GFP1-infected, compound-treated cells and XP is the average fluorescence intensity measured in the wells containing untreated cells infected with recombinant virus. EC50 values were then calculated by non-linear regression using a four parameter curve logistic equation. The curve fit model employed was XLFit Dose Response One Site Model 200: y=(A+(B/(1+((x/C)^D)))) Where A is the minimum y value, B is the maximum y value, C is the log EC50 value, and D is the slope factor. […] EC50 ranges are as follows: A<0.5 μM; B>0.5 μM.

Compound	EC50 [1]	EC50 [2]
C[C@@H](O)COc1cc(C(=O)NC[C@](O)(c2cc3c(c(-c4ccc(F)cc4)n2)OC[C@]3(C)C(N)=O)C(F)(F)F)cc2cccnc12 [Example 287]	> 0.2 µM	> 0.5 µM
COc1cc(C(=O)NC[C@](O)(c2cc3c(c(-c4ccc(F)cc4)n2)OC[C@]3(C)C(N)=O)C(F)(F)F)cc2cc(F)cnc12 [Example 518]	< 0.2 µM	> 0.5 µM
Cc1cnc2c(NC(=O)NCC(C)(C)O)cc(C(=O)NC[C@](O)(c3cc4c(c(-c5ccc(F)cc5)n3)OC[C@]4(C)C(N)=O)C(F)(F)F)cc2c1 [Example 551]	< 0.2 µM	> 0.5 µM
C[C@]1(C(N)=O)COc2c1cc([C@@](O)(CNC(=O)c1ccc(OC3CC3)c(-c3cncc(C(F)(F)F)c3)c1)C(F)(F)F)nc2-c1ccc(F)cc1 [Example 104]	> 0.2 µM	> 0.5 µM
C[C@]1(C(N)=O)COc2c1cc([C@@](O)(CNC(=O)c1cc(Cl)c3ncccc3c1)C(F)(F)F)nc2-c1ccc(F)cc1 [Example 221]	< 0.2 µM	< 0.5 µM
Cc1cnc2c(OCC(N)=O)cc(C(=O)NC[C@](O)(c3cc4c(c(-c5ccc(F)cc5)n3)OC[C@]4(C)C(N)=O)C(F)(F)F)cc2c1 [Example 366]	< 0.2 µM	> 0.5 µM
C[C@]1(C(N)=O)COc2c1cc([C@@](O)(CNC(=O)c1cc(OC3CC3)c3ncc(Cl)cc3c1)C1CC1)nc2-c1ccc(F)c(Cl)c1 [Example 531]	< 0.2 µM	< 0.5 µM
C[C@]1(C(N)=O)COc2c1cc([C@@](O)(CNC(=O)c1ccc3nnccc3c1)C(F)(F)F)nc2-c1ccc(F)cc1 [Example 230]	< 0.2 µM	> 0.5 µM
C[C@]1(C(N)=O)COc2c1cc([C@@](O)(CNC(=O)c1cc(Nc3ncncn3)c3ncccc3c1)C(F)(F)F)nc2-c1ccc(F)cc1 [Example 340]	< 0.2 µM	> 0.5 µM
C[C@]1(C(N)=O)COc2c1cc([C@@](O)(CNC(=O)c1ccc(OC3CC3)c(-c3ncccn3)c1)C(F)(F)F)nc2-c1ccc(F)cc1 [Example 127]	< 0.2 µM	> 0.5 µM
C[C@]1(C(N)=O)COc2c1cc([C@@](O)(CNC(=O)c1cc(OC3CC3)c3ncccc3c1)C(F)(F)F)nc2-c1ccc(F)cc1 [Example 61]	< 0.2 µM	< 0.5 µM
COc1cc(C(=O)NC[C@](O)(c2cc3c(c(-c4ccc(F)c(Cl)c4)n2)OC[C@]3(C)C(N)=O)C(F)(F)F)cc2cccnc12 [Example 86]	< 0.2 µM	< 0.5 µM
C[C@]1(C(N)=O)COc2c1cc([C@@](O)(CNC(=O)c1ccc(OC3CC3)c(OC3CC3)c1)C(F)(F)F)nc2-c1ccc(F)c(F)c1 [Example 91]	< 0.2 µM	< 0.5 µM
COc1cc(C(=O)NC[C@](O)(c2cc3c(c(-c4ccc(F)cc4)n2)OCC3(F)C(N)=O)C(F)(F)F)cc2cc(Cl)c(C)nc12 (stereo partly drawn) [Example 668]	< 0.2 µM	< 0.5 µM
C[C@]1(C(N)=O)COc2c1cc([C@](O)(CNC(=O)c1cc(OC3CC3)c3ncccc3c1)C(F)(F)F)nc2-c1csc2c(F)cccc12 [Example 81]	< 0.2 µM	< 0.5 µM
Cn1cc2cc(C(=O)NC[C@](O)(c3cc4c(c(-c5ccc(F)c(Cl)c5)n3)OC[C@]4(C)C(N)=O)C3CC3)ccc2n1 [Example 638]	< 0.2 µM	< 0.5 µM
COc1cc(C(=O)NCC(O)(c2cc3c(c(-c4ccc(F)cc4)n2)OC[C@]3(C)C(=O)NC2CC2)C(F)(F)F)cc2cccnc12 (stereo partly drawn) [Example 27]	< 0.2 µM	< 0.5 µM
Cc1cc2cc(C(=O)NC[C@](O)(c3cc4c(c(-c5ccc(F)c(Cl)c5)n3)OC[C@]4(C)C(N)=O)C(F)(F)F)ccc2nn1 [Example 617]	< 0.2 µM	< 0.5 µM
Cc1nc2cc(C(=O)NC[C@](O)(c3cc4c(c(-c5ccc(F)cc5)n3)OC[C@]4(C)C(N)=O)C(F)(F)F)ccc2[nH]1 [Example 600]	< 0.2 µM	> 0.5 µM
C[C@]1(C(N)=O)COc2c1cc([C@@](O)(CNC(=O)c1cc(NCC(N)=O)c3ncccc3c1)C(F)(F)F)nc2-c1ccc(F)cc1 [Example 384]	< 0.2 µM	> 0.5 µM

Compound	EC50 [1]	EC50 [2]
Cc1ccc2cc(C(=O)NC[C@](O)(c3cc4c(c(-c5ccc(F)cc5)n3)OC[C@]4(C)C(N)=O)C(F)(F)F)cc(NC(=O)C3(F)CC3)c2n1 [Example 627]	< 0.2 µM	> 0.5 µM
Cc1cnc2c(Nc3ncncn3)cc(C(=O)NC[C@](O)(c3cc4c(c(-c5ccc(F)cc5)n3)OC[C@]4(C)C(N)=O)C(F)(F)F)cc2c1 [Example 611]	< 0.2 µM	> 0.5 µM
C[C@]1(C(N)=O)COc2c1cc([C@](O)(CNC(=O)c1cc(OC3CC3)c3ncccc3c1)C(F)(F)F)nc2-c1ccc(C#N)cc1 [Example 83]	< 0.2 µM	> 0.5 µM
C[C@]1(C(N)=O)COc2c1cc([C@@](O)(CNC(=O)c1ccc(OC3CC3)c(-c3cccc(C(F)(F)F)n3)c1)C(F)(F)F)nc2-c1ccc(F)cc1 [Example 110]	< 0.2 µM	> 0.5 µM
COc1cc(C(=O)NC[C@](O)(c2cc3c(c(-c4ccc(F)cc4)n2)OC[C@]3(C)C(N)=O)C2CC2)cc2cc(C(F)(F)F)cnc12 [Example 535]	< 0.2 µM	< 0.5 µM
COc1cc(C(=O)NC[C@](O)(c2cc3c(c(-c4ccc(F)c(Cl)c4)n2)OC[C@]3(C)C(N)=O)C(F)(F)F)cc2cc(C(F)(F)F)cnc12 [Example 558]	< 0.2 µM	< 0.5 µM
COc1cc(C(=O)NC[C@](O)(c2cc3c(c(-c4ccc(F)cc4)n2)OC[C@]3(C)C(N)=O)C(F)(F)F)cc2ccncc12 [Example 361]	< 0.2 µM	> 0.5 µM
COc1cc(C(=O)NC[C@](O)(c2cc3c(c(-c4ccc(F)cc4)n2)OCC3(F)C(N)=O)C(F)(F)F)cc2cccnc12 (stereo partly drawn) [Example 669]	< 0.2 µM	> 0.5 µM
CC(C)(O)CNC(=O)[C@@]1(C)COc2c1cc([C@@](O)(CNC(=O)c1ccc3nc(N)sc3c1)C(F)(F)F)nc2-c1ccc(F)cc1 [Example 497]	< 0.2 µM	> 0.5 µM
C[C@]1(C(N)=O)COc2c1cc([C@@](O)(CNC(=O)c1cc(OC3CC3)c3ncccc3c1)C(F)(F)F)nc2-c1ccccc1 [Example 228]	< 0.2 µM	> 0.5 µM
CC(C)(O)CNC(=O)[C@@]1(C)COc2c1cc([C@@](O)(CNC(=O)c1cc(OC3CC3)c3ncccc3c1)C(F)(F)F)nc2-c1ccc(F)cc1 [Example 484]	< 0.2 µM	< 0.5 µM
C[C@]1(C(N)=O)COc2c1cc([C@@](O)(CNC(=O)c1cc(Oc3cnccn3)c3ncccc3c1)C(F)(F)F)nc2-c1ccc(F)cc1 [Example 387]	< 0.2 µM	> 0.5 µM
COc1cc(C(=O)NC[C@](O)(c2cc3c(c(-c4ccc(F)cc4)n2)OC[C@]3(C)C(N)=O)C(F)(F)F)cc2ccccc12 [Example 69]	> 0.2 µM	> 0.5 µM
COc1cc(C(=O)NC[C@](O)(c2cc3c(c(-c4ccc(F)cc4)n2)OC[C@]3(C)CNC2(C)CC2)C(F)(F)F)cc2cccnc12 [Example 44]	< 0.2 µM	> 0.5 µM
Cc1cnc2c(NC(=O)NCC(C)(C)F)cc(C(=O)NC[C@](O)(c3cc4c(c(-c5ccc(F)cc5)n3)OC[C@]4(C)C(N)=O)C(F)(F)F)cc2c1 [Example 622]	< 0.2 µM	< 0.5 µM
Cc1cnc2c(NC(=O)c3ccon3)cc(C(=O)NC[C@](O)(c3cc4c(c(-c5ccc(F)cc5)n3)OC[C@]4(C)C(N)=O)C(F)(F)F)cc2c1 [Example 621]	< 0.2 µM	> 0.5 µM
C[C@]1(C(N)=O)COc2c1cc([C@@](O)(CNC(=O)c1ccc(OC3CC3)c(OC3CC3)c1)C(F)(F)F)nc2-c1csc2c(F)cccc12 [Example 92]	< 0.2 µM	< 0.5 µM
COc1cc(C(=O)NC[C@](O)(c2cc3c(c(-c4ccc(F)cc4)n2)OC[C@]3(C)C(N)=O)C(F)(F)F)ccc1OC1CC1 [Example 62]	< 0.2 µM	< 0.5 µM
C[C@]1(C(N)=O)COc2c1cc([C@@](O)(CNC(=O)c1ccc(OC3CC3)c(-c3cnccn3)c1)C(F)(F)F)nc2-c1ccc(F)cc1 [Example 114]	< 0.2 µM	> 0.5 µM

Source: patent US11505558B1, “Antiviral heterocyclic compounds” (Enanta Pharmaceuticals, Inc., priority 2019, dated 2022)
